Assays:
PC12 cells = test: PC12 cell differentiation assay (neurite outgrowth); format: cell-based; conditions: for EC50 / Emax: Rattus norvegicus, PC-12, PC12 cells in N2 medium, 24 hours, neurites scored; for EC50: read-out: EC50 (μM), induction of PC12 cell differentiation; for Emax: read-out: Maximal Efficacy, induction of PC12 cell differentiation
Experimental: Four trihydroxyflavones (THF) and three dihydroxyflavones (DHF) which lack one or two, respectively, of the hydroxyl groups found in fisetin were tested for their ability to induce the differentiation of PC12 cells. Differentiation was assessed by scoring neurite outgrowth (Sagara et al., J. Neurochem., 90:1144-1155, 2004). […]
PC12 cells in N2 medium were treated with flavonoids for 24 hours at which time the cells were scored for the presence of neurites. PC12 cells produce neurites much more rapidly when treated in N2 medium than when treated in regular growth medium (Kimura et al., J. Cell Biol., 116:777-83, 1992). For each treatment, 100 cells in each of three separate fields were counted. Cells were scored positive if one or more neurites>1 cell body diameter in length were observed.

[1] = Trolox Equivalent Activity Concentration (ABTS decolorization assay); conditions: Trolox as reference
Experimental: To determine if the protection seen with the different fisetin derivatives correlated with their antioxidant properties, their Trolox Equivalent Activity Concentration (TEAC) values were determined. In this procedure, a compound is compared to Trolox, a water-soluble vitamin E analog, for its ability to reduce the radical cation of ABTS in aqueous solution. As reported previously, fisetin has a TEAC value of ˜3 (Table II). None of the derivatives had TEAC values in this range despite, in some cases, showing better protection against oxidative stress-induced death. Thus, there was no correlation with antioxidant activity as defined by TEAC value and protection in this system.
TEAC values for the flavonoids were determined according to (Re et al. Free Rad. Biol. Med., 26:1231-7, 1999) but modified for a plate reader. Briefly, 250 μl of 2,2′-azinobis(3-ethylbenzothiazoline 6-sulfonate)(ABTS) treated overnight with potassium persulfate and diluted to an OD of ˜0.7 at 734 nm was added to 2.5 μl of a flavonoid solution in ethanol. The change in absorbance due to the reduction of the ABTS radical cation was measured at 734 nm for 4 minutes. To calculate the TEAC, the gradient of the plot of the percentage inhibition of absorbance vs. concentration for the flavonoid in question is divided by the gradient of the plot for Trolox.

Nrf2 and HO-1 = Nrf2 and HO-1 induction in HT22 cells (immunoblotting); format: cell-based, mouse; conditions: for increasing the levels of Nrf2 and inducing HO-1 synthesis: HT22 cells, 10-25 μM, 4 hours (Nrf2), 24 hours (HO-1)
Experimental: Since the ability to activate the ARE could be important for some of the beneficial effects of flavonoids such as fisetin, it was determined which, if any, of the fisetin derivatives could activate the ARE and induce the synthesis of downstream proteins such as HO-1. HT22 cells were untreated (control) or treated with 10 μM fisetin, 25 μM 3,3′DHF, 25 μM 3,4′-DHF, 10 μM 3′,4′-DHF, 10 μM 3,3′,4′-THF, 25 μM 3,7,3′-THF, 25 μM 3,7,4′-THF or 10 μM 7,3′,4′-THF for 4 hours. Nuclei were prepared and equal amounts of protein were analyzed by SDS-PAGE and immunoblotting with anti-Nrf-2 antibodies.
ERK activation is implicated in the induction of Nrf2 by certain stimuli in some cell types. To determine if ERK activation plays a role in the induction of Nrf2 and HO-1 by fisetin and its derivatives, cells were pretreated with PD98059 prior to the addition of the flavonoids to the cells. HT22 cells then were untreated (control) or treated for 24 hours with 10 μM fisetin, 25 μM 3,3′-DHF, 25 μM 3,4′-DHF, 10 μM 3′,4′-DHF, 10 μM 3,3′,4′-THF, 25 μM 3,7,3′-THF, 25 μM 3,7,4′-THF or 10 μM 7,3′,4′-THF. Cell lysates were prepared and equal amounts of cellular protein were analyzed by SDS-PAGE and immunoblotting with anti-HO-1 antibodies. Immunoblotting with anti-actin was used as a loading control.
For immunoblotting of HO-1, untreated and flavonoid-treated HT22 cells from the same density cultures as used for the cell death assays were washed twice in cold phosphate-buffered saline (PBS) then scraped into lysis buffer containing 50 mM HEPES, pH 7.4, 150 mM NaCl, 50 mM NaF, 1.5 mM MgC2, 1 mM EGTA, 10% glycerol, 1% Triton X-100, 10 mM sodium pyrophosphate, 1 mM Na3VO4, 1 mM phenylmethylsulfonyl fluoride (PMSF), 15 μg/ml aprotinin, 1 μg/ml pepstatin, and 5 μg/ml leupeptin. Lysates were incubated at 4° C. for 30 minutes, and then cleared by centrifugation at 14,000 rpm for 10 minutes. For immunoblotting of Nr12, nuclear extracts were prepared as described (Schreiber et al., Nuc. Acids Res., 17:6419, 1989) from untreated and flavonoid-treated cells. […] Protein concentrations were determined using the BCA protein assay (Pierce). Equal amounts of protein were solubilized in 2.5×SDS sample buffer, separated on 10% SDS polyacrylamide gels and transferred to nitrocellulose. The primary antibodies used were: anti-Nrf2 (#SC13032; 1/1000) from Santa Cruz Biotechnology (Santa Cruz, Calif.) and anti-HO-1 (#SPA-896; 1/5000) from Stressgen (Victoria, BC Canada).

Row | Structure (SMILES) | EC50 (PC12 cells) | Emax (PC12 cells) | TEAC [1] | TEAC ([1]; listed as 3,7,3,′4′-THF (fisetin)) | increasing the levels of Nrf2 and inducing HO-1 synthesis (Nrf2 and HO-1) | effect of inhibition of ERK activation (PD98059) on Nrf2 and HO-1 induction (Nrf2 and HO-1; PD98059 pretreatment) | ability to induce differentiation (PC12 cells; PC12 cells) | differentiation of the PC12 cells (PC12 cells; concentration of 5 μM)
1 | O=c1c(O)c(-c2ccc(O)c(O)c2)oc2cc(O)ccc12 [fisetin, 3,3′,4′,7-tetrahydroxyflavone] | 5 µM | 70 to 80% | ~3 | 3.11 ± 0.20 | best of the group | no effect |  | 
2 | O=c1cc(-c2ccc(O)c(O)c2)oc2ccccc12 [3′,4′-DHF, 3′,4′-dihydroxyflavone] | 10 µM | 40 to 50% | 1.24 ± 0.08 |  | weakly active |  |  | 
3 | O=c1c(O)c(-c2ccc(O)c(O)c2)oc2ccccc12 [3,3′,4′-THF, 3,3′,4′-trihydroxyflavone] | 2.5 µM | 80 to 90% | 2.07 ± 0.06 |  | fairly effective |  | most effective of those tested | > 80%
